Measured values from patent US8685974B2 (Bayer CropScience AG, priority 2009, dated 2014).
“And” between values parts separate entries of the source, which are not always exact repeats. Identical values can stand only once. Like-named read-outs stand apart in the source and are kept apart here. Marks after values point to notes of the source that are not given here.

Experiments:
Leptosphaeria nodorum = Leptosphaeria nodorum test (wheat) / protective; assay type: in vivo; details: 500 ppm active compound, protective spray, evaluated 7-9 days after inoculation
How it was run: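 Young wheat plants sprayed protectively with compound in DMF/alkylaryl polyglycol ether emulsion diluted in water, then kept in greenhouse at 90% rel. humidity, 22° C. Scored 7-9 days after inoculation as % efficacy, 0% equal to untreated control and 100% no infection.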

[1] = logP by HPLC on reversed phase columns, method [a] (pH 2.3); assay type: physicochemical; details: for log p: method [a]: pH 2.3, 0.1% phosphoric acid and acetonitrile as eluent, main isomer
Peronospora parasitica = assay: In vivo test on Peronospora parasitica (crucifer downy mildew); details: dose of 500 ppm; cabbage plants; grading 5 days after contamination
Description: In Vivo Test on Peronospora parasitica (Crucifer Downy Mildew)
The active ingredients tested are prepared by homogenization in a mixture of acetone/Tween/DMSO, then diluted with water to obtain the desired active material concentration.
Cabbage plants (Eminence variety) in starter cups, sown on a 50/50 peat soil-pozzolana substrate and grown at 18-20° C., are treated at the cotyledon stage by spraying with the aqueous suspension described above.
(§1) Plants, used as controls, are treated with an aqueous solution not containing the active material.
After 24 hours, the plants are contaminated by spraying them with an aqueous suspension of Peronospora parasitica spores (50 000 spores per ml). The spores are collected from infected plant.
The contaminated cabbage plants are incubated for 5 days at 20° C., under a humid atmosphere.
Grading is carried out 5 days after the contamination, in comparison with the control plants.

Sphaerotheca fuliginea = assay: In vivo test on Sphaerotheca fuliginea (cucurbits powdery mildew); details: dose of 500 ppm; gherkin plants; grading 12 days after contamination
Description: In Vivo Test on Sphaerotheca fuliginea (Cucurbits Powdery Mildew)
(§2) The active ingredients tested are prepared by homogenization in a mixture of acetone/tween/DMSO, then diluted with water to obtain the desired active material.
Gherkin plants (Vert petit de Paris variety) in starter cups, sown on a 50/50 peat soil-pozzolana substrate and grown at 20° C./23° C., are treated at the cotyledon Z10 stage by spraying with the aqueous suspension described above. Plants, used as controls, are treated with an aqueous solution not containing the active material.
After 24 hours, the plants are contaminated by spraying them with an aqueous suspension of Sphaerotheca fuliginea spores (100 000 spores per ml). The spores are collected from a contaminated plants. The contaminated gherkin plants are incubated at about 20° C./25° C. and at 60/70% relative humidity.
Grading (% of efficacy) is carried out 12 days after the contamination, in comparison with the control plants.

[2] = pH 2.7; for logP value of the minor isomer (in parenthesis in column Isomer ratio [d]): main value of the example measured by method [b]
Alternaria solani = assay: Alternaria test (tomato) / protective; assay type: in vivo; details: 500 ppm active compound, protective spray, evaluated 7 days after inoculation
How it was run: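 Young tomato plants sprayed protectively with compound formulated in DMF with alkylaryl polyglycol ether emulsifier and diluted in water to the application rate. After inoculation, plants held at 96% rel. humidity and 20° C. Efficacy scored 7 days post-inoculation: 0% equals untreated control, 100% no infection.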

Pyrenophora teres = assay: In vivo test on Pyrenophora teres (barley net blotch); details: dose of 500 ppm; barley plants; grading 12 days after contamination
How it was run: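 Barley plants (Plaisant) grown at 12° C. sprayed at 1-leaf stage with compound in acetone/Tween/DMSO diluted in water; 24 h later inoculated with P. teres spores (12,000 spores/ml). Incubated 24 h at ~20° C., 100% RH, then 12 days at 80% RH; graded 12 days post-inoculation against untreated controls.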

Fusarium graminearum = assay type: cell-based; details: 50 μM; for % Inhibition of DON/AcDON at 50 μM: 7 days at 28° C.
[3] = logP by HPLC at pH 2.3 (0.1% phosphoric acid / acetonitrile); assay type: physicochemical; details: method [a]: pH 2.3 with 0.1% phosphoric acid and acetonitrile as eluent
Puccinia recondita = assay: In vivo test on Puccinia recondita (brown rust); details: dose of 500 ppm; wheat plants; grading 10 days after contamination
Description: In Vivo Test on Puccinia recondita (Brown Rust)
as §2
Wheat plants (Scipion variety) sown on 50/50 peat soil-pozzolana substrate in starter cups and grown at 12° C., are treated at the 1-leaf stage (10 cm tall) by spraying with the aqueous suspension described above.
as §1
After 24 hours, the plants are contaminated by spraying the leaves with an aqueous suspension of Puccinia recondita spores (100,000 spores per ml). The spores are collected from a 10-day-old contaminated wheat and are suspended in water containing 2.5 ml/l of tween 80 10%. The contaminated wheat plants are incubated for 24 hours at 20° C. and at 100% relative humidity, and then for 10 days at 20° C. and at 70% relative humidity.
Grading is carried out 10 days after the contamination, in comparison with the control plants.

Fusarium proliferatum = assay: Production of fumonisin FB1 by Fusarium proliferatum (microtiter plate, HPLC-MS/MS and OD620); assay type: cell-based

| SMILES | log p [1] | log p [2] | efficacy (Alternaria solani) [%] | % Inhibition of fungal growth at 50 μM (Fusarium graminearum) [%] | % Inhibition of DON/AcDON at 50 μM (Fusarium graminearum) [%] | further results |
| --- | --- | --- | --- | --- | --- | --- |
| CC(C)Cn1nc(C2CC2)c(-c2ccncc2)c1-c1ccc(Cl)s1 [Example 413] | 2.61^[a] | – | – | – | – | efficacy (Leptosphaeria nodorum): 70% |
| Clc1ccc(-c2nn(CCN3CCOCC3)cc2-c2ccncc2)s1 [Example 60] | – | 0.52^[b] | – | – | – | protection (Peronospora parasitica): 98%; protection (% of efficacy) (Sphaerotheca fuliginea): 75% |
| CC(C)Cn1cc(-c2ccnc(NC(=O)C(C)C)c2)c(-c2ccc(Cl)s2)n1 [Example 397] | 3.83^[a] | – | 100 | 32 | 97 | protection (Pyrenophora teres): 90% |
| CC(C)Cn1cc(-c2cc(N)ncn2)c(-c2ccc(Cl)s2)n1 [Example 423] | 1.97^[a] | – | 94 | 91 | 99 | efficacy (Leptosphaeria nodorum): 80%; protection (Pyrenophora teres): 75% |
| CC#Cc1c(-c2ccncc2)c(-c2ccc(Cl)s2)nn1C(C)C [Example 412] | 2.78^[a] | – | 90 | 98 | 93 | efficacy (Leptosphaeria nodorum): 70% |
| CC(=O)Nc1nccc(-c2cn(CC(C)C)nc2-c2ccc(Cl)s2)n1 [Example 410] | 3.04^[a] | – | – | 0 | 83 | efficacy (Leptosphaeria nodorum): 94% |
| COCC(=O)Nc1cc(-c2cn(CC(C)C)nc2-c2ccc(Cl)s2)ccn1 [Example 360] | – | – | 78 | 12 | 100 | log p [3]: 3.78^[a] |
| Cc1cn(-c2cc(-c3cn(CC(C)C)nc3-c3ccc(Cl)s3)ccn2)cn1 [Example 399] | 2.56^[a] | – | 78 | 0 | 90 | – |
| CC(C)n1cc(-c2ccncc2)c(-c2ccc(C(F)(F)F)s2)n1 [Example 401] | 2.2^[a] | – | 78 | 0 | 99 | – |
| CC(C)n1nc(C2CC2)c(-c2ccncc2)c1-c1ccc(Cl)s1 [Example 417] | 2.44^[a] | – | – | – | – | efficacy (Leptosphaeria nodorum): 80% |
| CC(C)C(C)n1ncc(-c2ccncc2)c1-c1ccc(Cl)s1 (stereo not shown) [Example 20] | – | 2.1^[b] | – | – | – | protection (Peronospora parasitica): at least 70% |
| Brc1ccc(-c2n[nH]cc2-c2ccncc2)s1 [Example 408] | 0.94^[a] | – | 70 | 0 | 97 | efficacy (Leptosphaeria nodorum): 78% |
| CC(=O)n1cc(-c2ccncc2)c(-c2ccc(Cl)s2)n1 [Example 86] | – | 2.04^[b] | – | – | – | protection (Peronospora parasitica): 92%; protection (Puccinia recondita): 75% |
| CC(=O)Nc1cc(-c2cn(CC(C)C)nc2-c2ccc(Cl)s2)ccn1 [Example 358] | – | – | 100 | 102 | 100 | protection (Pyrenophora teres): 80%; log p [3]: 2.96^[a] |
| CCNC(=O)Nc1cc(-c2cn(CC(C)C)nc2-c2ccc(Cl)s2)ccn1 [Example 321] | – | – | – | 39 | 92 | log p [3]: 3.18^[a] |
| CCC(C)n1cc(-c2cc[n+]([O-])cc2)c(-c2ccc(Cl)s2)n1 (stereo not shown) [Example 92] | – | 2.56^[b] | – | – | – | protection (% of efficacy) (Sphaerotheca fuliginea): 100% |
| CC(C)CC(C)n1ncc(-c2ccncc2)c1-c1ccc(Cl)s1 (stereo not shown) [Example 14] | – | 2.42^[b] | – | – | – | protection (% of efficacy) (Sphaerotheca fuliginea): 78% |
| CC(C)Nc1nccc(-c2c[nH]nc2-c2ccc(Cl)s2)n1 [Example 312] | – | – | – | 87 | 99 | log p [3]: 1.79^[a] |

| SMILES | log p [1] | log p [2] | efficacy (Alternaria solani) [%] | % Inhibition of fungal growth at 50 μM (Fusarium graminearum) [%] | % Inhibition of DON/AcDON at 50 μM (Fusarium graminearum) [%] | further results |
| --- | --- | --- | --- | --- | --- | --- |
| CCOC(=O)Cn1cc(-c2ccncc2)c(-c2ccc(Cl)s2)n1 [Example 63] | – | 1.67^[b] | – | – | – | protection (Peronospora parasitica): 94%; protection (% of efficacy) (Sphaerotheca fuliginea): 88% |
| CC#CCn1cc(-c2ccncc2)c(-c2ccc(Cl)s2)n1 [Example 51] | – | 1.81^[b] | – | – | – | protection (% of efficacy) (Sphaerotheca fuliginea): 100%; protection (Puccinia recondita): 75%; logP value of the minor isomer (in parenthesis in column Isomer ratio [d]) [2]: (1.60) |
| CC(C)Cn1cc(-c2ccnc3ccccc23)c(-c2ccc(Cl)s2)n1 [Example 421] | 3.69^[a] | – | 89 | – | – | – |
| Clc1ccc(-c2nn(CCc3ccccc3)cc2-c2ccncc2)s1 [Example 58] | – | 2.3^[b] | – | – | – | protection (% of efficacy) (Sphaerotheca fuliginea): 81% |
| CC(C)Cn1cc(-c2ccnc(NC(=O)C3CCC3)c2)c(-c2ccc(Cl)s2)n1 [Example 361] | – | – | 94 | – | – | log p [3]: 3.96^[a] |
| CC(C)=CCn1cc(-c2ccncc2)c(-c2ccc(Cl)s2)n1 [Example 7] | – | 2.25^[b] | – | – | – | protection (% of efficacy) (Sphaerotheca fuliginea): 78% |
| Clc1ccc(-c2nn(C3CC3)cc2-c2ccncc2)s1 [Example 66] | – | 1.62^[b] | – | – | – | protection (% of efficacy) (Sphaerotheca fuliginea): 95%; protection (Pyrenophora teres): 92%; protection (Puccinia recondita): 89% and 95% |
| c1cc(-c2c[nH]nc2-c2cc3ccsc3s2)ccn1 [Example 409] | 1.13^[a] | – | – | – | – | efficacy (Leptosphaeria nodorum): 78% |
| CCC(C)n1nc(-c2ccc(Cl)s2)c(-c2ccncc2)c1C1CC1 (stereo not shown) [Example 416] | 2.75^[a] | – | – | 8 | 91 | efficacy (Leptosphaeria nodorum): 70% |
| CCn1cc(-c2ccnc(N=C(c3ccccc3)c3ccccc3)c2)c(-c2ccc(Cl)s2)n1 [Example 311] | – | – | 70 | – | – | log p [3]: 3.99^[a] |
| Clc1ccc(-c2nn(CC3CCCO3)cc2-c2ccncc2)s1 (stereo not shown) [Example 56] | – | 1.6^[b] | – | – | – | protection (% of efficacy) (Sphaerotheca fuliginea): 88%; logP value of the minor isomer (in parenthesis in column Isomer ratio [d]) [2]: (1.44) |
| CC#Cc1c(-c2ccncc2)c(-c2ccc(Cl)s2)nn1Cc1ccc(OC)cc1 [Example 420] | 3.02^[a] | – | – | – | – | % inhibition FB1 production at 50 μM (Fusarium proliferatum; 5 days at 20° C., HPLC-MS/MS): 90%; % inhibition fungal growth at 50 μM (Fusarium proliferatum; Fusarium proliferatum, OD620 at start and after 5 days): 21%; logP value of the minor isomer ([1]; minor isomer, in parentheses in the Isomer ratio column, method [a], pH 2.3): (2.53) |
| CCC(=O)Nc1cc(-c2cn(CC(C)C)nc2-c2ccc(Cl)s2)ccn1 [Example 396] | 3.33^[a] | – | 100 | 30 | 100 | protection (Pyrenophora teres): 70% |
| CC(C)Cn1cc(-c2ccnc(NS(C)(=O)=O)c2)c(-c2ccc(Cl)s2)n1 [Example 362] | – | – | – | – | – | log p [3]: 3.04^[a] |
| CC(C)Cn1cc(-c2ccnc(NC(=O)C3CC3)c2)c(-c2ccc(Cl)s2)n1 [Example 359] | – | – | 94 | 62 | 100 | efficacy (Leptosphaeria nodorum): 90%; protection (Pyrenophora teres): 70%; log p [3]: 3.48^[a] |
| CC(C)Cn1cc(-c2ccnc(NC(=O)OC(C)C)c2)c(-c2ccc(Cl)s2)n1 [Example 319] | – | – | – | – | – | log p [3]: 5.15^[a] |
| CC(C)Cn1cc(-c2ccnc(NC(=O)c3cccs3)c2)c(-c2ccc(Cl)s2)n1 [Example 320] | – | – | – | – | – | log p [3]: 4.62^[a] |
